Results published in ChEMBL document CHEMBL1129432, “Structure-activity relationships of a series of novel (piperazinylbutyl)thiazolidinone antipsychotic agents related to 3-[4-[4-(6-fluorobenzo[b]thien-3-yl)-1-piperazinyl]butyl]-2,5,5- trimethyl-4-thiazolidinone maleate” (J Med Chem, 1996).

Experiments:
Rattus norvegicus [1] = assay: Anti psychotic effect Social interaction when compound administered at a doe of 0.125 mg/kg ip in rats; assay type: functional; details: route intraperitoneal
[2] = Intraperitoneal effective dose required for inhibition of apomorphine-induced stereotypy in rat; assay type: functional; details: ip
Rattus norvegicus [3] = assay: Anti psychotic effect Social interaction when compound administered at a doe of 0.05 mg/kg ip in rats; assay type: functional; details: route intraperitoneal
Rattus norvegicus [4] = assay: Percentage change in Total activity (anti psychotic) when compound administered at a doe of 0.05 mg/kg ip in rats; assay type: functional; details: route intraperitoneal
Rattus norvegicus [5] = assay: Percentage change in Total activity (anti psychotic) when compound administered at a doe of 0.125 mg/kg ip in rats; assay type: functional; details: route intraperitoneal
Rattus norvegicus [6] = assay: Total activity (anti psychotic) when compound administered at a doe of 0.125 mg/kg ip in rats; assay type: functional; details: route intraperitoneal
Rattus norvegicus [7] = assay: Percentage change in chronic single unit sampling when compound given at a dose of 0.5 mg/kg ip in rats; assay type: functional; details: route intraperitoneal
Rattus norvegicus [8] = assay: Percentage change in Social interaction when compound administered at a doe of 0.05 mg/kg ip in rats; assay type: functional; details: route intraperitoneal
Rattus norvegicus [9] = assay: Percentage change in Social interaction when compound administered at a doe of 0.125 mg/kg ip in rats; assay type: functional; details: route intraperitoneal
Rattus norvegicus [10] = assay: Percentage change in chronic single unit sampling when compound given at a dose of 0.5 mg/kg ip in rats (Expt-2); assay type: functional; details: route intraperitoneal
Rattus norvegicus [11] = assay: Total activity (anti psychotic) when compound administered at a doe of 5 mg/kg ip in rats; assay type: functional; details: route intraperitoneal
[12] = Compound at an intraperitoneal dose of 40 mg/Kg was tested for the inhibition of apomorphine-induced stereotypy in rat; assay type: functional; parameters: scale not given: the % may be the effect or the level left
Rattus norvegicus [13] = assay: Percentage change in Social interaction when compound administered at a doe of 10 mg/kg ip in rats; assay type: functional; details: route intraperitoneal
Rattus norvegicus [14] = assay: Percentage change in Social interaction when compound administered at a doe of 5 mg/kg ip in rats; assay type: functional; details: route intraperitoneal
Rattus norvegicus [15] = assay: Percentage change in Total activity (anti psychotic) when compound administered at a doe of 5 mg/kg ip in rats; assay type: functional; details: route intraperitoneal
Rattus norvegicus [16] = assay: Percentage change in Total activity (anti psychotic) when compound administered at a doe of 10 mg/kg ip in rats; assay type: functional; details: route intraperitoneal
Rattus norvegicus [17] = assay: Anti psychotic effect Social interaction when compound administered at a doe of 5 mg/kg ip in rats; assay type: functional; details: route intraperitoneal
Rattus norvegicus [18] = assay: Percentage change in chronic single unit sampling when compound given at a dose of 20 mg/kg ip in rats (Expt-2); assay type: functional; details: route intraperitoneal
Rattus norvegicus [19] = assay: Total activity (anti psychotic) when compound administered at a doe of 10 mg/kg ip in rats; assay type: functional; details: route intraperitoneal
Rattus norvegicus [20] = assay: Percentage change in chronic single unit sampling when compound given at a dose of 20 mg/kg ip in rats; assay type: functional; details: route intraperitoneal
Rattus norvegicus [21] = assay: Anti psychotic effect Social interaction when compound administered at a doe of 10 mg/kg ip in rats; assay type: functional; details: route intraperitoneal
D(4) dopamine receptor [22] = target: T1, D(4) dopamine receptor (Homo sapiens, UniProt P21917); assay: Binding affinity against human Dopamine receptor D4.2 in CHO cells; assay type: cell-based
T1 sequence (P21917 whole entry): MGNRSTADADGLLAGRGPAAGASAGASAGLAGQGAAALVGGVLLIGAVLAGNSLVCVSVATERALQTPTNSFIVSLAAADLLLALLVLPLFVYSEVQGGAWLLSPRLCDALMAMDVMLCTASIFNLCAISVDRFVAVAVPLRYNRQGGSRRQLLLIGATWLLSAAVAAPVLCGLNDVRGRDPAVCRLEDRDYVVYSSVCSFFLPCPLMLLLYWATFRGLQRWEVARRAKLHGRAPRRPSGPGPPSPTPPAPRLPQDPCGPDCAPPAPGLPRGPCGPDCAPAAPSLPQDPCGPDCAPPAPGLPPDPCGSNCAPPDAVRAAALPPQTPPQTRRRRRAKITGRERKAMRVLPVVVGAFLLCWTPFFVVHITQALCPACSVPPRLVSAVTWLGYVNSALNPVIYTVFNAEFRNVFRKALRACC

Rattus norvegicus [23] = assay: Percentage change in chronic single unit sampling when compound given at a dose of 10 mg/kg ip in rats(Expt-2); assay type: functional; details: route intraperitoneal
Rattus norvegicus [24] = assay: Percentage change in Total activity (anti psychotic) when compound administered at a doe of 1.25 mg/kg ip in rats; assay type: functional; details: route intraperitoneal
Rattus norvegicus [25] = assay: Percentage change in Social interaction when compound administered at a doe of 2.5 mg/kg ip in rats; assay type: functional; details: route intraperitoneal
Rattus norvegicus [26] = assay: Percentage change in Social interaction when compound administered at a doe of 1.25 mg/kg ip in rats; assay type: functional; details: route intraperitoneal
[27] = target: T2, 5-hydroxytryptamine receptor 1A (Rattus norvegicus, UniProt P19327); assay: Binding affinity towards serotonin 5-HT1A receptor was determined in rat hippocampus using [3H]8-OH-DPAT as ligand; assay type: tissue-based
T2 sequence (P19327 whole entry): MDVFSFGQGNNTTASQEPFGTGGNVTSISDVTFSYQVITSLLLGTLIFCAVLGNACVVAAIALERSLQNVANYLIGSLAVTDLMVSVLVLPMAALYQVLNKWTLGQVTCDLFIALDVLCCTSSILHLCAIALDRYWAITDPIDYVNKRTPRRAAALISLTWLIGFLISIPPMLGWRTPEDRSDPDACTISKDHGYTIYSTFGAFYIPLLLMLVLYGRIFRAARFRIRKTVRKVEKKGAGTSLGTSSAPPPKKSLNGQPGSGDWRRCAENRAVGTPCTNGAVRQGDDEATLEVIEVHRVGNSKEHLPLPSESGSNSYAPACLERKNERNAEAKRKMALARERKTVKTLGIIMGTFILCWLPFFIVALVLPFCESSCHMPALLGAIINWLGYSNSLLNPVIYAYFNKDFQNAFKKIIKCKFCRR

Rattus norvegicus [28] = assay: Total activity (anti psychotic) when compound administered at a doe of 1.25 mg/kg ip in rats; assay type: functional; details: route intraperitoneal
[29] = target: T3, 5-hydroxytryptamine receptor 2A (Homo sapiens, UniProt P28223); assay: Inhibitory concentration against human 5-HT2A receptor in BEK cells; assay type: cell-based
Rattus norvegicus [30] = assay: Anti psychotic effect Social interaction when compound administered at a doe of 2.5 mg/kg ip in rats; assay type: functional; details: route intraperitoneal
Rattus norvegicus [31] = assay: Percentage change in Total activity (anti psychotic) when compound administered at a doe of 2.5 mg/kg ip in rats; assay type: functional; details: route intraperitoneal
D(4) dopamine receptor [32] = target: T1, D(4) dopamine receptor
Description: Inhibitory concentration against human Dopamine receptor D4.2 in CHO cells

Rattus norvegicus [33] = assay: Total activity (anti psychotic) when compound administered at a doe of 2.5 mg/kg ip in rats; assay type: functional; details: route intraperitoneal
[34] = target: Serotonin 2 (5-HT2) receptor (Rattus norvegicus, UniProt P30994+P08909+P14842); assay: Binding affinity towards serotonin 5-HT2 receptor was determined in rat cortex using [3H]spiperone as ligand
Rattus norvegicus [35] = assay: Percentage change in chronic single unit sampling when compound given at a dose of 10 mg/kg ip in rats; assay type: functional; details: route intraperitoneal
[36] = target: T3, 5-hydroxytryptamine receptor 2A; assay: Binding affinity towards human 5-HT2A receptor in BEK cells; assay type: cell-based
Rattus norvegicus [37] = assay: Anti psychotic effect Social interaction when compound administered at a doe of 1.25 mg/kg ip in rats; assay type: functional; details: route intraperitoneal
Rattus norvegicus [38] = assay: Compound at an intraperitoneal dose of 30 mg/Kg was tested for the inhibition of apomorphine-induced stereotypy in rat; assay type: functional; parameters: scale not given: the % may be the effect or the level left
Rattus norvegicus [39] = assay: Compound at an intraperitoneal dose of 20 mg/Kg was tested for the inhibition of apomorphine-induced stereotypy in rat; assay type: functional; parameters: scale not given: the % may be the effect or the level left
D(2) dopamine receptor = D(2) dopamine receptor (Rattus norvegicus, UniProt P61169); assay: Binding affinity towards Dopamine receptor D2 was determined in rat striatum using [3H]- spiperone as radioligand; assay type: tissue-based
Rattus norvegicus [40] = assay: Percentage change in chronic single unit sampling when compound given at a dose of 10 mg/kg ip (Expt-2); assay type: functional; details: route intraperitoneal
Rattus norvegicus [41] = assay: Compound at an intraperitoneal dose of 60 mg/Kg was tested for the inhibition of apomorphine-induced stereotypy in rat; assay type: functional; parameters: scale not given: the % may be the effect or the level left
Rattus norvegicus [42] = assay: Compound at an intraperitoneal dose of 50 mg/Kg was tested for the inhibition of apomorphine-induced stereotypy in rat; assay type: functional; parameters: scale not given: the % may be the effect or the level left

T3 sequence (P28223 whole entry): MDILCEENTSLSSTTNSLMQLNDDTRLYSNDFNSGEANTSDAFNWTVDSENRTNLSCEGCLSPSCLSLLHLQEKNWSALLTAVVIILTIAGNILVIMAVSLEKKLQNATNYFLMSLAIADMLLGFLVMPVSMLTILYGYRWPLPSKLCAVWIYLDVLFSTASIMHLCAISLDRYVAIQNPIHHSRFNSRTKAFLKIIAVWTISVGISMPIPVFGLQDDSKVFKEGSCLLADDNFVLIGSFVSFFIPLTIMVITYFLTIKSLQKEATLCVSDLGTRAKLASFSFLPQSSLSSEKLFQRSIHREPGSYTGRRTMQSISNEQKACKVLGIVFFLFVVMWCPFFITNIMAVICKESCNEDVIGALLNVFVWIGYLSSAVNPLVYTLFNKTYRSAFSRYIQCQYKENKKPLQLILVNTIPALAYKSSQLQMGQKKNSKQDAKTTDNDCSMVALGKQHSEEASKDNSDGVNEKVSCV
Sequence of D(2) dopamine receptor (P61169 whole entry): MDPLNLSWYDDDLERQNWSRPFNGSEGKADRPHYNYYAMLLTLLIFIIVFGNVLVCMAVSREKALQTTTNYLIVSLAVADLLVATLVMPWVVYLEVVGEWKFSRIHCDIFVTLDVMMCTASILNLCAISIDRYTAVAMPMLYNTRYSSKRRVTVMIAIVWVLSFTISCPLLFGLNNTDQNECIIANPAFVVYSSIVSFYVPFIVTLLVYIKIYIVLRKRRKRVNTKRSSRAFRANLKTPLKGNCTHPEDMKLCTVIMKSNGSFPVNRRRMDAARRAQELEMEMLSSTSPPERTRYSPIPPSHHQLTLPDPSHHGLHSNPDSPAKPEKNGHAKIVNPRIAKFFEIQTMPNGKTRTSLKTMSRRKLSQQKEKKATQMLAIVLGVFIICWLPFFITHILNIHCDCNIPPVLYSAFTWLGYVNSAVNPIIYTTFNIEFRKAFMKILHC

Row | SMILES | Total activity (Rattus norvegicus [11]) | Change (Rattus norvegicus [14]) [%] | Change (Rattus norvegicus [15]) [%] | Social interaction (Rattus norvegicus [17]) | Change (Rattus norvegicus [18]) [%] | Change (Rattus norvegicus [20]) [%] | Ki (D(4) dopamine receptor [22]) [nM] | Change (Rattus norvegicus [24]) [%] | Change (Rattus norvegicus [25]) [%] | Change (Rattus norvegicus [26]) [%] | IC50 [27] [nM] | Total activity (Rattus norvegicus [28]) | IC50 [29] [nM] | Social interaction (Rattus norvegicus [30]) | Change (Rattus norvegicus [31]) [%] | IC50 (D(4) dopamine receptor [32]) [nM] | Total activity (Rattus norvegicus [33]) | IC50 [34] [nM] | Change (Rattus norvegicus [35]) [%] | Ki [36] [nM] | also measured
1 | O=C(CCCN1CCC(O)(c2ccc(Cl)cc2)CC1)c1ccc(F)cc1 [HALOPERIDOL] |  |  |  |  |  |  |  |  |  |  |  |  |  |  |  |  |  |  |  |  | Social interaction (Rattus norvegicus [1]): 65.6; ED50 [2]: 0.6 mg/kg; Social interaction (Rattus norvegicus [3]): 77.2; Change (Rattus norvegicus [4]): -11%; Change (Rattus norvegicus [5]): -22%; Total activity (Rattus norvegicus [6]): 112.3; Change (Rattus norvegicus [7]): -35%; Change (Rattus norvegicus [8]): -19%; Change (Rattus norvegicus [9]): -32%; Change (Rattus norvegicus [10]): -30%
2 | CN1CCN(C2=Nc3cc(Cl)ccc3Nc3ccccc32)CC1 [CLOZAPINE] | 140.3 | 14 | -18 | 123.3 | 37 | -79 |  |  |  |  |  |  |  |  |  |  |  |  |  |  | Activity [12]: 33%; Change (Rattus norvegicus [13]): 40%; Change (Rattus norvegicus [16]): -15%; Total activity (Rattus norvegicus [19]): 146.3; Social interaction (Rattus norvegicus [21]): 151.3
3 | CC1SC(C)(C)C(=O)N1CCCCN1CCN(c2csc3cc(F)ccc23)CC1 (centres undefined) |  |  |  |  | 32 | -57 | 5 | 1 | 9 | 14 | 61 | 144.3 | 17 | 109.1 | -32 | 29 | 96 | 56 | -34 | 8 | Change (Rattus norvegicus [23]): 14%; Social interaction (Rattus norvegicus [37]): 114
4 | CC1SC2(CCCC2)C(=O)N1CCCCN1CCN(c2nsc3ccccc23)CC1 (centres undefined) |  |  |  |  |  |  |  |  |  |  | 3 |  |  |  |  |  |  | 9.6 |  |  | Activity (Rattus norvegicus [38]): 100%; Activity (Rattus norvegicus [39]): 10%; IC50 (D(2) dopamine receptor): 154 nM
5 | CC1SC2(CCCC2)C(=O)N1CCCCN1CCN(c2csc3cc(F)ccc23)CC1 (centres undefined) | 82.1 | 5 | -36 | 97.3 | -8 | -39 | 117 | 1 | 14 | 13 | 189 | 146 | 8 | 106.5 | 18 | 713 | 106.3 | 131 | -27 | 4 | Change (Rattus norvegicus [40]): -12%; Activity (Rattus norvegicus [41]): 50%; IC50 (D(2) dopamine receptor): 954 nM; Activity (Rattus norvegicus [42]): 20%; Social interaction (Rattus norvegicus [37]): 108
